{"source": "paper PMC12495087", "about": "(ESMO Open, 2025)", "key": {"[1]": {"tested_on": "RET-fusion-positive NSCLC", "assay": "phase I study: tumor response per RECIST v.1.1, NSCLC", "type": "in vivo, human"}, "[2]": {"tested_on": "vascular endothelial growth factor receptor 2", "settings": "cited from earlier work"}, "RET G810": {"tested_on": "RET G810", "settings": "cited from earlier work"}}, "data": [{"smiles": "COc1cc2cc(-c3ccc(CC(=O)Nc4cc(C(C)(C)C(F)(F)F)no4)cn3)cnc2cc1OC", "note": "[BOS172738]", "values": [{"measurement": "median PFS", "setting": "[1]; NSCLC", "value": 6.18, "unit": "months"}, {"measurement": "median DoR", "setting": "[1]; confirmed responders with NSCLC", "value": 10.17, "unit": "months"}, {"measurement": "specificity to RET compared with vascular endothelial growth factor receptor 2", "setting": "[2]", "value": "> 300", "unit": "fold"}, {"measurement": "activity against RET G810 resistance", "setting": "RET G810", "value": "able to overcome RET G810 resistance"}]}]}
